Test results as given in patent US20240016850A1, “CELL-NANOPARTICLE DRUG DELIVERY SYSTEM AND USE OF THE SAME FOR INHIBITING GROWTH OF TUMOR CELLS AND DIAGNOSING TUMOR CELLS” (priority 2022, published 2024).

Tests used:
[1] = Gd3+ release from gadodiamide and Gd-FPFNP (dialysis, Xylenol orange); type: physicochemical; settings: 24th hour; 1.05 mM gadodiamide; PBS, 37° C.
Procedure: In order to monitor the in vitro release of gadolinium(III) ions (Gd^3+) from gadodiamide and Gd-FPFNP, a respective one of gadodiamide at concentration of 1.05 mM and Gd-FPFNP that was loaded with 1.05 mM of gadodiamide were incubated in DMEM, and then added into a dialysis tube with cellulose membrane having a molecular weight cutoff of 1 kDa, followed by immersing the dialysis tube in 10 mL of PBS and stirring at 37° C. Thereafter, 0.5 mL aliquots of the PBS were taken out at the 3rd hour and 24th hour of stirring, followed by addition of Xylenol orange agent and analysis using a UV-Vis detector conducted according to procedures described by Barge A. et al., in an article entitled “How to determine free Gd and free ligand in solution of Gd chelates. A technical note.” published in Contrast Media Mol. Imaging, 2006, Vol. 1, p. 184-188, so as to determine the amount of Gd^3+ released in vitro.

[2] = Biodistribution in vital organs with different treatment regimens (ICP-MS); type: in vivo, rat; settings: 24th hour post-administration
Text: In order to determine the differences in biodistribution of the cell-nanoparticle drug delivery system with those of gadodiamide and Gd-FPFNP in vital organs, the orthotopic GBM-bearing rats prepared in section B above were divided into 4 groups, namely, comparative groups 1 and 2 (CG1 and CG2), and experimental groups 1 and 2 (EG1 and EG2), with n=4 per each group. […] At the 24th hour post-administration, the orthotopic GBM-bearing rats in each group were sacrificed, and the blood and tissues from the heart, liver, spleen, lung, kidney, intestine, left brain and right brain were subjected to the pre-processing steps as described in section E above, and then subjected to quantification of elemental gadolinium (Gd) content by ICP-MS system as described in Item 5 of section B in Example 1. The results were expressed as percentage of administered (injected) dose per gram tissue (ID/g), calculated using the aforesaid formula (3), and shown in FIG. 16.

concentration of Gd3+ released [1]: 38.6 µM
elemental gadolinium in vital organs [2]: not or hardly detected
SMILES: CNC(=O)CN(CCN(CCN(CC(=O)[O-])CC(=O)NC)CC(=O)[O-])CC(=O)[O-].[Gd+3] [gadodiamide, Gadodiamide]
